Results from patent US12636370B2, “Combination therapy for treatment of cancer” (Institute For Cancer Research, priority 2019, dated 2026).

Columns and labels:
Assay type in all cases: cell-based
OVCAR8 cells [1] = experiment: CellTiter-Glo cell viability, OVCAR8 parental cells; conditions: dose escalation, 5 days
[2] = test system: BET proteins (BRD2, BRD3, BRD4); experiment: Western blot of BET protein levels, OVCAR8 parental cells
OVCAR8 cells [3] = experiment: Single-run proteome analysis and RNA-seq, OVCAR8 cells; conditions: 48 hours, single-run proteome analysis
Experimental: Enrichment maps of pathways repressed by short-term BBD generated from single-run proteome profiles of OVCAR8 cells treated with BBDs (MZ1 or ARV825) for 48 hours were prepared (data not shown). Statistical differences in protein log 2 LFQ z-scores comparing BBDs or BBIs to control treated cells was determined by paired T-Test Benjamini-Hochberg adjusted p values at FDR of <0.05 using Perseus Software. […] Enrichment maps were generated in Cytoscape using the Enrichment Map app v2.2.1. […] Statistical differences in protein log 2 LFQ z-scores comparing BBDs or BBIs to control treated cells was determined.

[4] = test system: translation markers, RNA pol II, MYC; experiment: Western blot of translation, BRD4-targets and MYC signaling, OVCAR8 cells; conditions: 500 nM, 48 hours
kinome = experiment: MIB-MS kinome profiling, OVCAR8 cells; conditions: 48 hours
[5] = test system: RTKs, EGFR, ERBB2, ERBB3, FGFR1, and IGF1R; experiment: Western blot of kinase (RTK) protein levels, OVCAR8 cells; conditions: 500 nM, 48 hours
[6] = test system: RTKs FGFR1, FGFR2, FGFR3, IGF1R and ERBB4; experiment: Western blot of RTK protein levels, KURAMOCHI and COV362 cells; conditions: 500 nM, 48 hours
OVCAR8 MZ1-R cells = experiment: CellTiter-Glo cell viability, OVCAR8 MZ1-R cells; conditions: OVCAR8 MZ1-R, escalating doses, 5 days
OVCAR8 ARV-R cells [7] = experiment: CellTiter-Glo cell viability, OVCAR8 ARV-R cells; conditions: escalating doses, 5 days
OVCAR8 JQ1-R cells [8] = experiment: CellTiter-Glo cell viability, OVCAR8 JQ1-R cells; conditions: escalating doses, 5 days
[9] = test system: BET proteins (BRD2, BRD3, BRD4); experiment: Western blot of BET proteins and BRD4 targets, OVCAR8 MZ1-R cells; conditions: Western blot
[10] = test system: BET proteins (BRD2, BRD3, BRD4); experiment: Western blot of BET proteins, OVCAR8 ARV-R cells
BET proteins, FOSL1, MYC = experiment: Western blot of BET proteins and BRD4 targets, JQ1-R cells
OVCAR8 ARV-R cells [11] = experiment: Apoptosis by cleaved PARP Western blot, OVCAR8 ARV-R cells
OVCAR8 JQ1-R cells [12] = experiment: Apoptosis by cleaved PARP Western blot, OVCAR8 JQ1-R cells
PEO1 JQ1-R cells = experiment: CellTiter-Glo cell viability, PEO1 JQ1-R cells; conditions: escalating doses, 5 days
[13] = test system: KURAMOCHI, COV362 and OVCAR5 MZ1-R cells; experiment: CellTiter-Glo cell viability, KURAMOCHI, COV362 and OVCAR5 MZ1-R cells; conditions: COV362 and OVCAR5, escalating doses, 5 days
[14] = test system: BET proteins (BRD2, BRD4); experiment: Western blot of BET proteins, KURAMOCHI, COV362 and OVCAR5 MZ1-R cells
OVSAHO cells = experiment: Combination treatment of OVSAHO cells; conditions: BRD4 overexpressing HGSOC cell line OVSAHO
SW48 (KRAS WT) cells = experiment: Cell-Titer Glo cell viability, SW48 (KRAS WT) cells
Experimental: (§1) K-ras mutations promote resistance to BET protein degraders that can be overcome by MTORC1 inhibitors. Briefly, isogenic SW48 colorectal cancer cells expressing wild-type or mutant (G12D) K-ras were treated with increasing doses of MZ1 and cell viability was assessed. Expression of K-ras mutants promote resistance to MZ1 therapy (FIG. 18, Panel A). Immunoblot analysis depicts activation of translation by forced expression of K-ras G12D mutants in SW48 cells (FIG. 18, Panel B). SW48 cells expressing wild-type or K-ras G12D mutants were treated with DMSO, 2 μM RAD001, increasing doses of MZ1 or 2 μM RAD001+increasing doses of MZ1 for 4 hours and BRD4 protein assessed by Western blot. A Cell-Titer Glo assay was performed for cell viability of SW48 (KRAS G12D) cell lines treated with increasing concentrations of RAD001, MZ1 or the combination of RAD001 and MZ1 and cultured for 120 hours. Data were analyzed as % cell viability of DMSO control, presented as means of 3 independent assays. […] Data were analyzed as % cell viability of DMSO control, presented as means of 3 independent assays. […]

SW48 (KRAS G12D) cells = experiment: Cell-Titer Glo cell viability, SW48 (KRAS G12D) cells
Experimental: as §1

BRD4 = target: T1, BRD4 (Homo sapiens, UniProt O60885); experiment: Western blot of BRD4 protein, SW48 K-ras G12D cells; conditions: 4 hours
T1 construct: endogenous in cells
Experimental: as §1

- GI50 (SW48 (KRAS G12D) cells; SW48 cells harboring K-Ras G12D mutation): 63 nM
- BRD4 degradation (BRD4): impaired the degradation of BRD4
Structure (SMILES): Cc1ncsc1-c1ccc(CNC(=O)[C@@H]2C[C@@H](O)CN2C(=O)[C@@H](NC(=O)COCCOCCOCCNC(=O)C[C@@H]2N=C(c3ccc(Cl)cc3)c3c(sc(C)c3C)-n3c(C)nnc32)C(C)(C)C)cc1 [MZ1]
- GI50 (OVCAR8 cells [1]): 142 nM
- BET protein levels [2]: degraded BET proteins in a concentration-dependent manner
- global protein level changes (OVCAR8 cells [3]): uniquely downregulated proteins involved in ribosome and translation signaling
- MYC protein levels [4]: reduced MYC protein levels
- phosphorylation of translation markers ([4]; relative to cis-MZ1 or JQ1): distinctly reduced phosphorylation of FOX01/3 (T24/32), P70S6 Kinase (T389), pEIF4E (S209) and p4EBP1 (T37/46)
- kinase MIB-binding (kinome): uniquely increased MIB-binding of INSR, CDK7, EPHA4 and EPHA2
- RTK protein levels [5]: MZ1-specific reduction of RTKs, EGFR, ERBB2, ERBB3, FGFR1, and IGF1R
- RTK protein levels [6]: downregulation of RTKs protein levels such as FGFR1, FGFR2, FGFR3, IGF1R and ERBB4
- cell viability of MZ1-R cells compared with parental cells (OVCAR8 MZ1-R cells): rightward shift
- cell viability of ARV-R cells compared with parental cells (OVCAR8 ARV-R cells [7]): failed to reduce BET proteins, block growth or induce apoptosis
- cell viability of JQ1-R cells (OVCAR8 JQ1-R cells [8]): inhibited cell viability
- BET protein levels [9]: insufficient to degrade BRD2, BRD3 or BRD4
- BET protein levels [10]: failed to reduce BET proteins, block growth or induce apoptosis
- BET protein levels (BET proteins, FOSL1, MYC): degraded BET proteins
- BRD4 target (FOSL1, MYC) protein levels (BET proteins, FOSL1, MYC): reduced MYC/FOSL1 protein levels
- apoptosis (OVCAR8 ARV-R cells [11]): failed to reduce BET proteins, block growth or induce apoptosis
- apoptosis (OVCAR8 JQ1-R cells [12]): induced apoptosis
- cell killing / viability (PEO1 JQ1-R cells): can be killed by treatment with BET PROTAC MZ1
- cell viability / growth of MZ1-R cells compared with parental cells [13]: rightward shift
- BET protein levels [14]: failed to mediated degradation of BET proteins
- dose sufficient to induce sensitivity towards GSK529A, lapatinib or RAD001 (OVSAHO cells): 10 nM
- inhibition of viability (SW48 (KRAS WT) cells; SW48 K-Ras WT cells, single agent, low concentrations): > 50%
- GI50 (SW48 (KRAS WT) cells; SW48 parental (wild-type K-Ras) cells): 0.63 nM
- shift in GI50, K-Ras mutant vs parental cells (SW48 (KRAS G12D) cells; SW48 isogenic cells): 10 fold
